These results are taken from patent US10406218B2 (priority 2014, dated 2019).

What all share (type): cell-based, human
The subject of assay [1] is T cells of LTBI and HC donors. The assay is described as follows: antigen reactivity in LTBI vs HC donors (LTBI-specific or crossreactive). Conditions: response frequency and magnitude in LTBI vs HC donors, FIG. 10. The text has this:
The data herein implies that preexisting immunity and occasional boosting might be provided by exposure to NTMs, in a low MTB-complex exposure population such as the one from the general San Diego area. This might be viewed as desirable, or alternatively contributing an undesired confounding factor in evaluation of vaccination strategies. Regardless, whether or not preexisting, non-TB-complex related reactivity is present in the general population is an important issue has implication for the development of vaccination strategies. To further investigate this issue, epitope reactivity data (Lindestamm-Arlehamn et al, 2012) was mapped back to the specific antigens from which the epitopes were derived. Antigens recognized by 2 or more donors were further categorized as LTBI-specific or crossreactive according to the following criteria; antigens were categorized as LTBI-specific if there was a lack of reactivity in HC individuals, or if the ratio between response frequency and total SFC for LTBI/HC were >4. All other antigens were categorized as crossreactive.

The test system of assay [2] is IL-10 production by cells of HC donors. Conditions: for IL-10 SFC: HC donors; for # resp IL-10: number of responding HC donors out of # tested (5 or 6).
The subject of assay [3] is IFNγ production by cells of HC donors. In words: IFNγ production (SFC) in HC donors in response to broadly conserved peptides. Conditions: for IFNg SFC: HC donors; for # resp IFNg: number of responding HC donors out of # tested (5 or 6). The protocol:
To test this hypothesis, the HLA binding capacity of the 4241 broadly conserved peptides for common HLA class II alleles was predicted. Next peptides were selected predicted to bind with high affinity to alleles expressed in representative HC donors were tested for IL-10 production. Several frequently recognized IL-10 producing peptides could be identified (FIG. 13A), none of which produced a significant amount of IFNγ (FIG. 13B).

The test system of a further assay is CD4+ memory T cells.

For “Rv3804c: MTB antigen currently included in TB vaccines in clinical development”, the “antigen reactivity category (LTBI-specific or crossreactive)” value in assay [1] is “widely cross-reactive”.

As for IGQFGIGFYSSFMVA [Peptide 3580.0012], in assay [2], the “IL-10 SFC” value is 468 SFC and the “# resp IL-10” value turned out to be 3. Further, in assay [3], the “IFNg SFC” value was found to be 10 SFC and the “# resp IFNg” value is on record as 0.

Consider AKSVLIFLGIPLLAG [Peptide 3580.0010], for which, in assay [2], the “IL-10 SFC” value turned out to be 892 SFC and the “# resp IL-10” value is 4. In assay [3], the “IFNg SFC” value is 35 SFC and the “# resp IFNg” value turned out to be 0.

Regarding DRIAQLLVQRVELVE [Peptide 3580.0009], in assay [2], the “IL-10 SFC” value is 1018 SFC and the “# resp IL-10” value worked out at 5. Also, in assay [3], the “IFNg SFC” value is 50 SFC and the “# resp IFNg” value is 0.

Regarding QAAVVRFQEAANKQK [CFP1052-66], the “epitope-specific cells in CD4+ naive subset or CD4+ memory subset of control donors” value in the assay on CD4+ memory T cells is given as “No epitope-specific cells were detected”. Moreover, in the assay on CD4+ memory T cells (5 LTBI donors, median (interquartile range 0.03-0.33)), the “frequency of epitope-specific CD4+ memory T cells, median” value stood at 0.09.

For the substance FTGKPEFVENFFMFI [Peptide 3580.0004], in assay [2], the “IL-10 SFC” value is 622 SFC and the “# resp IL-10” value is given as 3. For the same substance, in assay [3], the “IFNg SFC” value came out at 27 SFC and the “# resp IFNg” value is recorded as 0.

With YVLFLFTQTVRHRDF [Peptide 3580.0014], in assay [2], the “IL-10 SFC” value amounted to 975 SFC and the “# resp IL-10” value stood at 4. Also, in assay [3], the “IFNg SFC” value is listed as 53 SFC and the “# resp IFNg” value is 0.

As to LSSTEFELLRFLMRN [Peptide 3580.0020], in assay [2], the “IL-10 SFC” value was determined as 1017 SFC and the “# resp IL-10” value is 5. Besides, in assay [3], the “IFNg SFC” value came to 33 SFC and the “# resp IFNg” value was found to be 0.
